Measurements reported in article PMC8989888, “Development of optimized drug-like small molecule inhibitors of the SARS-CoV-2 3CL protease for treatment of COVID-19” (Nature Communications, 2022).
Values joined by “and” are separate entries in the source; they are usually repeats but may differ in a detail not shown here. Equal entries are not always repeated. Where two headings read alike, the source gives them in different places.

Biological target: SARS-CoV-2 3CL protease (Severe acute respiratory syndrome coronavirus 2, UniProt P0DTD1)
Assay: biochemical
Conditions: for Normalized SARS-CoV-2 3CL protease activity: 0.2 µM protease with 50 µM tested compound; for Normalized SARS-CoV-2 3CL protease activity / Protease activity (normalized): replicates; for activity against SARS-CoV-2 3CL protease (in words): compound 4 analogs
[1] = 200 nM protease, read-out: IC50

Row | SMILES | Normalized SARS-CoV-2 3CL protease activity | IC50 [1] [µM] | activity against SARS-CoV-2 3CL protease (in words) | also measured
1 | CC(C)(C)OC(=O)NC(CO)CC1CCNC1=O (stereo not shown) [AZVIII-30] | 0.9915 and 0.9651 and 0.9186 | > 50 | did not produce active compounds | 
2 | CCOC(=O)/C=C/[C@H](C[C@@H]1CCNC1=O)NC(=O)[C@H](CC(C)C)NC(=O)OC(C)(C)C [AZVIII-33B] | 1.107 and 0.6918 and 1.159 | > 50 | inactive | 
3 | CC(C)C[C@H](NC(=O)OC(C)(C)C)C(=O)N[C@H](CO)C[C@@H]1CCNC1=O [AZVIII-37A] | 0.8312 and 1.007 and 1.0118 | > 50 | inactive | 
4 | COC(=O)[C@H](C[C@@H]1CCNC1=O)NC(=O)OC(C)(C)C [AZVIII-38] | 1.058 and 1.088 and 0.9126 | > 50 | did not produce active compounds | 
5 | O=c1[nH]sc2ccccc12 [AZVIII-40A, 1,2-Benzisothiazol-3(2H)-one, reference compound] |  |  |  | IC50 (IC50): 0.79 µM
6 | CCOC(=O)C=CC(CC1CCNC1=O)NC(=O)C(CC(C)C)NC(=O)OCc1ccccc1 (stereo not shown) [AZVIII-41A] | 0.05469 and 0.07659 and 0.08287 | > 50 |  | IC90 (200 nM protease): > 50 µM; Protease activity (normalized) (200 nM protease, log10[nM] 0.404879): 0.9534 and 1.001 and 1.046; Protease activity (normalized) (200 nM protease, log10[nM] 0.882): 0.9954 and 1.035 and 1.1072; Protease activity (normalized) (200 nM protease, log10[nM] 1.35912): 0.9788 and 1.032 and 1.063; Protease activity (normalized) (200 nM protease, log10[nM] 1.83624): 0.8536 and 0.8662 and 0.892; Protease activity (normalized) (200 nM protease, log10[nM] 2.31336): 0.8339 and 0.8695 and 0.9444; Protease activity (normalized) (200 nM protease, log10[nM] 2.79048): 0.86 and 0.9004 and 0.9124; Protease activity (normalized) (200 nM protease, log10[nM] 3.26761): 0.9439 and 0.9917 and 1.018; Protease activity (normalized) (200 nM protease, log10[nM] 3.74473): 0.9845 and 1.046 and 1.061; Protease activity (normalized) (200 nM protease, log10[nM] 4.22185): 0.8912 and 0.9195 and 0.9785; Protease activity (normalized) (200 nM protease, log10[nM] 4.69897): 0.4548 and 0.5207 and 0.5344; Protease activity (normalized) (200 nM protease, log10[nM] -0.0722425): 0.8359 and 0.8847 and 0.9024; Protease activity (normalized) (200 nM protease, log10[nM] -0.549364): 0.7778 and 0.8128 and 0.8188
7 | CC(C)(C)OC(=O)NC(C=O)CC1CCNC1=O (stereo not shown) [AZVIII-42] | 0.09531 and 0.1273 and 0.138 |  | functioned slightly better | IC90 (200 nM protease): > 50 µM
8 | CC(C)(C)OC(=O)NC(CC1CCNC1=O)Cn1sc2ccccc2c1=O (stereo not shown) [AZVIII-43A] | 1.104 and 1.129 and 1.238 | > 50 | did not produce active compounds | 
9 | O=S(=O)(NCc1cccnc1)c1cccnc1 [AZVIII-44B] | 1.138 and 1.193 and 1.162 | > 50 |  | 
10 | O=S(=O)(NCc1ccccc1)c1ccccc1 [AZVIII-44D] | 1.234 and 1.326 and 1.299 | > 50 |  | 
11 | O=S(=O)(NCc1ccccc1)c1cccnc1 [AZVIII-44E] | 1.222 and 1.184 and 1.143 | > 50 |  | 
